Measured values: patent US9650395B2, “Antibacterial compounds and methods for use” (PTC Therapeutics, Inc., priority 2011, dated 2017)
≈ marks a conversion by molar mass, not a printed value. Like-named read-outs stand apart in the source and are kept apart here.

What was measured:
[1] = system: super sensitive Gram-negative Escherichia coli (E. coli) BAS849; experiment: Antibacterial activity, microbroth dilution MIC, E. coli BAS849; format: cell-based; details: Escherichia coli, read-out: MIC, BAS849
[2] = system: control Gram-negative E. coli 25922 strain; experiment: Antibacterial activity, microbroth dilution MIC, E. coli 25922; format: cell-based, Escherichia coli; details: Escherichia coli; E. coli 25922, microbroth dilution; read-out: MIC, 25922
[3] = system: Gram-positive Staphylococcus aureus (S. aureus) 29213; experiment: Antibacterial activity, microbroth dilution MIC, S. aureus 29213; format: cell-based; details: Staphylococcus aureus; S. aureus 29213, microbroth dilution; read-out: MIC, 29213
[4] = system: Haemophilus influenzae (H. influenzae) 49247; experiment: Antibacterial activity, MIC, H. influenzae 49247; format: cell-based; details: Haemophilus influenzae; H. influenzae 49247; read-out: MIC 49247
Excerpt: The antibacterial activity from a microbroth dilution method may be presented as the minimum inhibitory concentration (MIC in […]). The MIC value is the lowest concentration of a drug which prevents macroscopically visible bacterial growth under test conditions.
Antibacterial activity of test compounds against the Gram-negative bacteria Haemophilus influenzae (H. influenzae) 49247, Moraxella catarrhalis (M. catarrhalis) 25238 and Neisseria meningitidis (N. meningitidis) 13090 is shown in Table 6.

[5] = system: Moraxella catarrhalis (M. catarrhalis) 25238; experiment: Antibacterial activity, MIC, M. catarrhalis 25238; format: cell-based; details: Moraxella catarrhalis, M. catarrhalis 25238; read-out: MIC 25238
[6] = system: Neisseria meningitidis (N. meningitidis) 13090; experiment: Antibacterial activity, MIC, N. meningitidis 13090; format: cell-based; details: Neisseria meningitidis; N. meningitidis 13090; read-out: MIC 13090
[7] = E. coli BAS849, microbroth dilution

SMILES	MIC [1, 7] [µg/mL]	MIC [2] [µg/mL]	MIC [3] [µg/mL]	MIC [4] [µg/mL]	MIC [5] [µg/mL]	MIC [6] [µg/mL]	MIC [1] [µg/mL]
CCc1cc(C(=O)O)c(=O)[nH]c1-c1ccc(N2[C@H](COC)CC[C@H]2COC)cc1 [Cpd 148, 6-{4-[(2S,5S)-2,5-bis(methoxymethyl)pyrrolidin-1-yl]phenyl}-5-ethyl-2-oxo-1,2-dihydropyridine-3-carboxylic acid]	3.5 to 12.5 (≈ 8.74 to 31.2 µM)	12.5 to 150 (≈ 31.2 to 375 µM)	12.5 to 150 (≈ 31.2 to 375 µM)	12.5 to 150 (≈ 31.2 to 375 µM)	12.5 to 150 (≈ 31.2 to 375 µM)	3.5 to 12.5 (≈ 8.74 to 31.2 µM)	
CCc1c(-c2ccc(N3CCCCC3)cc2)[nH]c(=O)c(C(=O)O)c1O [Cpd 109, 5-ethyl-4-hydroxy-2-oxo-6-[4-(piperidin-1-yl)phenyl]-1,2-dihydropyridine-3-carboxylic acid]	< 1	12.5 to 150 (≈ 36.5 to 438 µM)	3.5 to 12.5 (≈ 10.2 to 36.5 µM)	< 1	< 1	< 1	
CCc1cc(C(=O)O)c(=O)[nH]c1-c1ccc(N2CCCC2c2ccccc2)cc1 (stereo not drawn) [Cpd 145, 5-ethyl-2-oxo-6-[4-(2-phenylpyrrolidin-1-yl)phenyl]-1,2-dihydropyridine-3-carboxylic acid]	< 1	12.5 to 150 (≈ 32.2 to 386 µM)	1 to 3.5 (≈ 2.57 to 9.01 µM)	< 1	< 1	< 1	
CN(C)c1ccc(-c2[nH]c(=O)c(C(=O)O)c(O)c2C2CCCCC2)cc1 [Cpd 7, 5-cyclohexyl-6-[4-(dimethylamino)phenyl]-4-hydroxy-2-oxo-1,2-dihydropyridine-3-carboxylic acid]	3.5 to 12.5 (≈ 9.82 to 35.1 µM)	12.5 to 150 (≈ 35.1 to 421 µM)	1 to 3.5 (≈ 2.81 to 9.82 µM)	< 1	< 1	1 to 3.5 (≈ 2.81 to 9.82 µM)	
CCc1cc(C(=O)O)c(=O)[nH]c1-c1ccc(-n2ccnc2)cc1 [Cpd 106, 5-ethyl-6-[4-(1H-imidazol-1-yl)phenyl]-2-oxo-1,2-dihydropyridine-3-carboxylic acid]	12.5 to 150 (≈ 40.4 to 485 µM)	12.5 to 150 (≈ 40.4 to 485 µM)	12.5 to 150 (≈ 40.4 to 485 µM)	< 1	12.5 to 150 (≈ 40.4 to 485 µM)	3.5 to 12.5 (≈ 11.3 to 40.4 µM)	
CCc1cc(C(=O)O)c(=O)[nH]c1-c1ccc(N2CCC[C@H]2C(F)(F)F)cc1 [Cpd 142, 5-ethyl-2-oxo-6-{4-[(2S)-2-(trifluoromethyl)pyrrolidin-1-yl]phenyl}-1,2-dihydropyridine-3-carboxylic acid]	1 to 3.5 (≈ 2.63 to 9.2 µM)	12.5 to 150 (≈ 32.9 to 394 µM)	12.5 to 150 (≈ 32.9 to 394 µM)	3.5 to 12.5 (≈ 9.2 to 32.9 µM)	1 to 3.5 (≈ 2.63 to 9.2 µM)	< 1	
CN(C)c1ccc(-c2[nH]c(=O)c(C(=O)O)cc2C2CCCCC2)cc1 [Cpd 6, 5-cyclohexyl-6-[4-(dimethylamino)phenyl]-2-oxo-1,2-dihydropyridine-3-carboxylic acid]	3.5 to 12.5 (≈ 10.3 to 36.7 µM)	12.5 to 150 (≈ 36.7 to 441 µM)	12.5 to 150 (≈ 36.7 to 441 µM)	< 1	3.5 to 12.5 (≈ 10.3 to 36.7 µM)	< 1	
CCc1cc(C(=O)O)c(=O)[nH]c1-c1ccc(N2CCN(C(=O)OC(C)(C)C)CC2)cc1 [Cpd 102, 6-{4-[4-(tert-butoxycarbonyl)piperazin-1-yl]phenyl}-5-ethyl-2-oxo-1,2-dihydropyridine-3-carboxylic acid]	1 to 3.5 (≈ 2.34 to 8.19 µM)	12.5 to 150 (≈ 29.2 to 351 µM)	12.5 to 150 (≈ 29.2 to 351 µM)	1 to 3.5 (≈ 2.34 to 8.19 µM)	< 1	1 to 3.5 (≈ 2.34 to 8.19 µM)	
CN(C)c1ccc(-c2[nH]c(=O)c(C(=O)O)cc2C(=O)O)cc1 [Cpd 11, 6-[4-(dimethylamino)phenyl]-2-oxo-1,2-dihydropyridine-3,5-dicarboxylic acid]	12.5 to 150 (≈ 41.4 to 496 µM)	12.5 to 150 (≈ 41.4 to 496 µM)	12.5 to 150 (≈ 41.4 to 496 µM)	< 1	12.5 to 150 (≈ 41.4 to 496 µM)	12.5 to 150 (≈ 41.4 to 496 µM)	
CCc1cc(C(=O)O)c(=O)[nH]c1-c1ccc(N2CCCC2c2nccs2)cc1 (stereo not drawn) [Cpd 156, 5-ethyl-2-oxo-6-{4-[2-(1,3-thiazol-2-yl)pyrrolidin-1-yl]phenyl}-1,2-dihydropyridine-3-carboxylic acid]	< 1	12.5 to 150 (≈ 31.6 to 379 µM)	12.5 to 150 (≈ 31.6 to 379 µM)	< 1	< 1	< 1	
CCc1cc(C(=O)O)c(=O)[nH]c1-c1ccc(N2CCCC2=O)cc1 [Cpd 114, 5-ethyl-2-oxo-6-[4-(2-oxopyrrolidin-1-yl)phenyl]-1,2-dihydropyridine-3-carboxylic acid]	1 to 3.5 (≈ 3.06 to 10.7 µM)	12.5 to 150 (≈ 38.3 to 460 µM)	12.5 to 150 (≈ 38.3 to 460 µM)	< 1	< 1	< 1	
Cc1cc(C(=O)O)c(=O)[nH]c1-c1ccc(N2CCOCC2)c(F)c1 [Cpd 89, 6-[3-fluoro-4-(morpholin-4-yl)phenyl]-5-methyl-2-oxo-1,2-dihydropyridine-3-carboxylic acid]	12.5 to 150 (≈ 37.6 to 451 µM)	12.5 to 150 (≈ 37.6 to 451 µM)	12.5 to 150 (≈ 37.6 to 451 µM)	< 1	12.5 to 150 (≈ 37.6 to 451 µM)	12.5 to 150 (≈ 37.6 to 451 µM)	
CCc1cc(C(=O)O)c(=O)[nH]c1-c1ccc(N2CC3CC2CN3)cc1.O=C(O)C(F)(F)F (stereo not drawn) [Cpd 138, 6-[4-(2,5-diazabicyclo[2.2.1]hept-2-yl)phenyl]-5-ethyl-2-oxo-1,2-dihydropyridine-3-carboxylic acid trifluoroacetate]		12.5 to 150	12.5 to 150	12.5 to 150	< 1	12.5 to 150	12.5 to 150
CN(C)c1ccc(-c2[nH]c(=O)c(C(=O)O)cc2C#N)cc1 [Cpd 14, 5-cyano-6-[4-(dimethylamino)phenyl]-2-oxo-1,2-dihydropyridine-3-carboxylic acid]	12.5 to 150 (≈ 44.1 to 529 µM)	12.5 to 150 (≈ 44.1 to 529 µM)	12.5 to 150 (≈ 44.1 to 529 µM)	< 1	12.5 to 150 (≈ 44.1 to 529 µM)	12.5 to 150 (≈ 44.1 to 529 µM)	
CCc1c(-c2ccc(N(C)C)cc2)[nH]c(=O)c(C(=O)O)c1OC [Cpd 298, 6-[4-(dimethylamino)phenyl]-5-ethyl-4-methoxy-2-oxo-1,2-dihydropyridine-3-carboxylic acid]	3.5 to 12.5 (≈ 11.1 to 39.5 µM)	12.5 to 150 (≈ 39.5 to 474 µM)	12.5 to 150 (≈ 39.5 to 474 µM)	3.5 to 12.5 (≈ 11.1 to 39.5 µM)	12.5 to 150 (≈ 39.5 to 474 µM)	3.5 to 12.5 (≈ 11.1 to 39.5 µM)	
CCc1cc(C(=O)O)c(=O)[nH]c1-c1ccc(N2CCN(C(=O)OC(C)(C)C)CC2)c(F)c1 [Cpd 91, 6-{4-[4-(tert-butoxycarbonyl)piperazin-1-yl]-3-fluorophenyl}-5-ethyl-2-oxo-1,2-dihydropyridine-3-carboxylic acid]	12.5 to 150 (≈ 28.1 to 337 µM)	12.5 to 150 (≈ 28.1 to 337 µM)	12.5 to 150 (≈ 28.1 to 337 µM)	1 to 3.5 (≈ 2.24 to 7.86 µM)	< 1	3.5 to 12.5 (≈ 7.86 to 28.1 µM)	
CCCc1c(-c2ccc(N(C)C)cc2)[nH]c(=O)c(C(=O)O)c1O [Cpd 9, 6-[4-(dimethylamino)phenyl]-4-hydroxy-2-oxo-5-propyl-1,2-dihydropyridine-3-carboxylic acid]	< 1	12.5 to 150 (≈ 39.5 to 474 µM)	1 to 3.5 (≈ 3.16 to 11.1 µM)	< 1	< 1	< 1	
CCc1c(-c2ccc(NCCCI)cc2)[nH]c(=O)c(C(=O)O)c1O [Cpd 82, 5-ethyl-4-hydroxy-6-{4-[(3-iodopropyl)amino]phenyl}-2-oxo-1,2-dihydropyridine-3-carboxylic acid]	3.5 to 12.5 (≈ 7.91 to 28.3 µM)	12.5 to 150 (≈ 28.3 to 339 µM)	1 to 3.5 (≈ 2.26 to 7.91 µM)	< 1	< 1	< 1	
CCc1cc(C(=O)O)c(=O)[nH]c1-c1ccc(N2CCC[C@H]2COC)cc1 [Cpd 146, 5-ethyl-6-{4-[(2S)-2-(methoxymethyl)pyrrolidin-1-yl]phenyl}-2-oxo-1,2-dihydropyridine-3-carboxylic acid]	< 1	12.5 to 150 (≈ 35.1 to 421 µM)	12.5 to 150 (≈ 35.1 to 421 µM)	1 to 3.5 (≈ 2.81 to 9.82 µM)	< 1	< 1	
CN(C)c1ccc(-c2[nH]c(=O)c(C(=O)O)c(O)c2Cc2ccccc2)cc1 [Cpd 2, 5-benzyl-6-[4-(dimethylamino)phenyl]-4-hydroxy-2-oxo-1,2-dihydropyridine-3-carboxylic acid]	12.5 to 150 (≈ 34.3 to 412 µM)	12.5 to 150 (≈ 34.3 to 412 µM)	3.5 to 12.5 (≈ 9.6 to 34.3 µM)	< 1	< 1	< 1	
CN(C)c1ccc(-c2[nH]c(=O)c(C(=O)O)c(O)c2C2CC2)cc1 [Cpd 13, 5-cyclopropyl-6-[4-(dimethylamino)phenyl]-4-hydroxy-2-oxo-1,2-dihydropyridine-3-carboxylic acid]	1 to 3.5 (≈ 3.18 to 11.1 µM)	12.5 to 150 (≈ 39.8 to 477 µM)	3.5 to 12.5 (≈ 11.1 to 39.8 µM)	< 1	< 1	< 1	
CCc1cc(C(=O)O)c(=O)[nH]c1-c1ccc(N2CCNCC2)cc1.O=C(O)C(F)(F)F [Cpd 103, 5-ethyl-2-oxo-6-[4-(piperazin-1-yl)phenyl]-1,2-dihydropyridine-3-carboxylic acid trifluoroacetate]		12.5 to 150	12.5 to 150	< 1	12.5 to 150	3.5 to 12.5	3.5 to 12.5
